For orientation: t½ means the time in which the quantity being followed falls by half. For orientation: Cmax means the highest concentration seen after dosing. One may read the Tmax as the time at which the peak concentration occurs.

From patent US20140121182A1, “PROTEASOME INHIBITORS AND PROCESSES FOR THEIR PREPARATION, PURIFICATION AND USE” (Cephalon, Inc., priority 2011, published 2014) come the findings set out here.

A short description of data set [1]: Storage for approximately one year at ambient indoor temperature and humidity, HPLC purity. The data set is classed as physicochemical. The note with it: in a vial at the rear of a fume hood. Here is the method: A 100 mL three neck round bottom flask equipped with a stir bar, thermocouple and nitrogen inlet is charged with 6.0 g (16.6 mmol) of Compound 1 (98.5A % purity) and 60 mL of ethyl acetate then stirred for five minutes at room temperature to dissolve the solids. Diethanol amine (1.68 g, 16.0 mmol) is charged and solids begin to form when addition is only ⅔ complete. The white slurry is stirred at room temperature for two hours and then the solids are collected by vacuum filtration, washed with 50 mL of ethyl acetate and dried overnight in a vacuum oven at 40° C. A quantitative yield of the desired product is obtained as a crystalline solid with an HPLC purity of 99.7A %. After storing for approximately one (1) year at ambient indoor temperature and humidity (in a vial at the rear of a fume hood), the HPLC purity was 99.9A %. ^1H NMR (d6-DMSO, 400 MHz) δ 8.8 (t, 1H, J=5.88 Hz), 7.55 (s, 2H), 7.52 (s, 1H), 6.99 (d, 1H, J=8.36 Hz), 6.57 (s, b, 1H), 3.85 (dq, 1H, J=16.1, 5.92 Hz), 3.69 (m, 2H), 3.57 (m, 1H), 3.14 (m, 1H), 2.99 (m, 2H), 2.75 (m, 1H), 2.69 (m, 1H), 1.59 (m, 1H), 1.31 (m, 1H), 1.22 (m, 1H), 0.824 (d, 3H, J=6.64 Hz), 0.797 (D, 3 h, J=6.48 Hz)
A 15 mL one neck round bottom flask equipped with a stir bar and nitrogen inlet is charged with 0.5 g (1.39 mmol) of Compound 1 (98.5A % purity) and 5 mL of ethyl acetate then stirred for five minutes at room temperature to dissolve the solids. Diisopropanolamine (185 mg, 1.39 mmol) is charged and stirred at room temperature. The white precipitate is collected by vacuum filtration, washed with 5 mL of ethyl acetate and dried overnight under nitrogen on the filter to give 410 mg (0.895 mmol, 64%) of the desired product with an HPLC purity of 99.4A %. […]

Data set [2] can be described thus: Comparative bioavailability: pharmacokinetic parameters for Compound 1 in rat plasma and blood after single iv and oral doses of its esters. The data set is classed as in vivo, male Sprague Dawley rats. The note with it: for AUC0-t / AUC0-∞ / CL / Vd / t½ / Cmax / Oral Bioavailability / Tmax: mean ± SEM. The procedure: Three adult male Sprague Dawley rats are used in each treatment group. The rats are fasted overnight prior to oral dose administration. Intravenous (IV) administration is via the lateral tail vein and oral doses are administered by gavage. The compound is administered iv or orally in a vehicle of phosphate buffered saline.
For blood collection, each rat (unanesthetized) is placed in a clear Plexiglas® restraining tube, and blood samples (approximately 0.25 mL) are drawn from a lateral tail vein into heparinized collection tubes at predetermined sampling times (0.083, 0.25, 0.5, 1, 2, 4, and 6 hours post dose). No pre-dose samples are obtained. The exception to this procedure is the last sampling time in which the animals are sacrificed by decapitation and trunk blood is obtained rather than blood via a tail vein. The blood samples are placed on wet ice until centrifuged to separate plasma. The whole blood and the plasma fraction are transferred into clean dry tubes, frozen on dry ice and stored at approximately −20° C. pending analysis.
Blood or plasma is prepared for high performance liquid chromatography (HPLC)/mass spectrometric analysis according to standard protocol following protein precipitation with acetonitrile containing an internal standard. The blood or plasma samples are then analyzed for Compound 1 and alprenolol (internal standard) via HPLC coupled with tandem mass spectrometry.
The blood and plasma concentration data for all rats are entered into Excel spreadsheets in preparation for pharmacokinetic analysis. Pharmacokinetic parameters for Compound 1 are estimated for each rat by non-compartmental analysis (Gibaldi M, Perrier D. Pharmacokinetics, 2nd edition, Marcel Dekker, New York, Chapter 11, 1982) of the blood or plasma concentration versus time data using WinNonlin software (Professional Version 4.1a, Pharsight Corporation, Palo Alto, Calif., 2003).
The maximum blood or plasma concentration (Cmax) is the highest observed concentration after an oral dose; tmax is the corresponding time when Cmax is observed. The terminal rate constant for elimination from blood or plasma (β) is estimated by linear regression of the terminal portion of the semi-logarithmic plasma concentration versus time curve. The apparent terminal half-life (t1/2) is calculated as 0.693 divided by β. The area under the blood or plasma concentration versus time curve from time zero to the time of the last measurable concentration (AUC0-t) after a single dose is determined by the linear trapezoidal rule. The area from zero to infinity (AUC0-∞) is calculated as the sum of AUC0-t and the area extrapolated from the last measurable concentration to infinity (Clast/β). Concentrations pre dose are all assumed to be zero for the purpose of calculation of the AUC. Oral bioavailability is determined by dividing the dose normalized oral AUC0-∞ by the […] from iv dosing and multiplying by 100 to express the ratio as a percent.
The mean±SEM. pharmacokinetic parameters for Compound 1 in male Sprague Dawley rats administered as single iv and oral doses of the citric acid ester of Compound 1 (“Form 1” or “Form 2”) or the diethanolamine ester of Compound 1 (“DEA Adduct”; i.e., boronic ester of Formula X) are shown in Tables 5-10 and corresponding FIGS. 5-10.

The nature of data set [3]: Storage stability in freezer / under ambient conditions. The data set is classed as physicochemical. The text has this:
Compound 1 is obtained as a non-crystalline solid using the process set forth in US 2009/0325903. Compound 1 is obtained as a mixture of monomer and the trimer anhydride N,N′,N″-boroxin-2,4,6-triyltris {{(1R)-3-methylbutane-1,1-diyl]imino(2-oxoethane-2,1-diyl)]}tris(2,5-dichlorobenzamide) (H NMR analysis).
The citric acid ester of Compound 1 (4-(R,S)-(carboxymethyl)-2-((R)-1-(2-(2,5-dichlorobenzamido)acetamido)-3-methylbutyl)-6-oxo-1,3,2-dioxaborinane-4-carboxylic acid) is obtained as a crystalline solid (Form 1 or Form 2) using the process set forth in US 2009/0325903. The citric acid ester of Compound 1 is stable when stored in the freezer.

[4] abbreviates: Compound 1 in blood, 0.3 mg/kg IV.
[5] abbreviates: Compound 1 in blood, 1 mg/kg IV.
Where [6] appears, read: Compound 1 in blood, 1 mg/kg PO.
Where [7] appears, read: Compound 1 in blood, 3 mg/kg PO.
Setting [8] is: Compound 1 in plasma, 0.3 mg/kg IV.
Setting [9] is: Compound 1 in plasma, 1 mg/kg IV.
Setting [10] is: Compound 1 in plasma, 1 mg/kg PO.
Setting [11] is: Compound 1 in plasma, 3 mg/kg PO.

Consider `CC(C)C[C@H](NC(=O)CNC(=O)c1cc(Cl)ccc1Cl)B1OC(C)CNCC(C)O1` (stereo partly drawn) [boronic ester of Formula IX, 2,5-Dichloro-N-{[(R)-1-(4,8-dimethyl-[1,3,6,2]dioxazaborocan-2-yl)-3-methyl-butylcarbamoyl]-methyl}benzamide], for which the “HPLC purity after storing for approximately one (1) year” value (from here on “HPLC purity after storing”) in data set [1] came to 99.8 A %.
For “2,5-Dichloro-N—[(R)-1-[1,3,6,2]dioxazaborocan-2-yl-3-methyl-butylcarbamoyl)methyl]-benzamide [boronic ester of Formula X]”, in data set [2] (setting [4]), the AUC0-t came to 168 ± 46 ng·h/mL, the “AUC0-∞” value is 190 ± 45 ng·h/mL, the CL was found to be 30 ± 6 mL/min/kg and the Vd is given as 5.8 ± 1.9 L/kg. Further, in data set [2] (setting [4]), the t½ stood at 2.2 ± 0.4 h. Moreover, in data set [2] (setting [5]), the AUC0-t is 509 ± 89 ng·h/mL, the “AUC0-∞” value worked out at 535 ± 100 ng·h/mL, the CL was 33 ± 6 mL/min/kg and the Vd worked out at 3.9 ± 0.7 L/kg. In data set [2] (setting [5]), this compound came in with a t½ of 1.4 ± 0.2 h. For the same compound, in data set [2] (setting [6]), the AUC0-t is 166 ± 16 ng·h/mL, the “AUC0-∞” value was 200 ± 17 ng·h/mL, the Cmax was 92 ± 39 ng/mL and the “Oral Bioavailability” value is on record as 32 ± 1%. Besides, in data set [2] (setting [6]), the Tmax was found to be 0.3 ± 0.1 h and the t½ amounted to 2.8 h. For the same compound, in data set [2] (setting [7]), the AUC0-t came out at 336 ± 69 ng·h/mL, the “AUC0-∞” value worked out at 381 ± 78 ng·h/mL, the Cmax is given as 205 ± 84 ng/mL and the “Oral Bioavailability” value is on record as 23 ± 4%. Further, in data set [2] (setting [7]), the Tmax is listed as 0.8 ± 0.6 h and the t½ was found to be 1.7 ± 0.2 h. Also, in data set [2] (setting [8]), the AUC0-t stood at 449 ± 256 ng·h/mL, the “AUC0-∞” value worked out at 457 ± 254 ng·h/mL, the CL is 20 ± 9 mL/min/kg and the Vd stood at 0.9 ± 0.3 L/kg. The compound further came in with a t½ in data set [2] (setting [8]) of 0.6 ± 0.1 h. Further, in data set [2] (setting [9]), the AUC0-t came to 1225 ± 42 ng·h/mL, the “AUC0-∞” value is 1240 ± 47 ng·h/mL, the CL was found to be 13 ± 1 mL/min/kg and the Vd was 1.2 ± 0.1 L/kg. This compound yielded a t½ in data set [2] (setting [9]) of 1.1 ± 0.1 h. Further, in data set [2] (setting [10]), the AUC0-t is 170 ± 16 ng·h/mL, the “AUC0-∞” value turned out to be 182 ± 17 ng·h/mL, the Cmax came out at 179 ± 39 ng/mL and the “Oral Bioavailability” value was determined as 12 ± 1%. The Tmax in data set [2] (setting [10]) came to 0.3 ± 0.1 h. Also, in data set [2] (setting [11]), the AUC0-t is 990 ± 310 ng·h/mL, the “AUC0-∞” value is 1029 ± 299 ng·h/mL, the Cmax was determined as 567 ± 185 ng/mL and the “Oral Bioavailability” value was found to be 27 ± 8%. In addition, in data set [2] (setting [11]), the Tmax turned out to be 0.5 ± 0.0 h and the t½ was determined as 1.1 ± 0.1 h. Besides, the “oral bioavailability (conclusion in words)” value in data set [2] (conclusion from Tables 5-10) was “orally bioavailable”. For the same compound, the “HPLC purity after storing” value in data set [1] came to 99.9 A %.
In the case of `CC(C)C[C@H](NC(=O)CNC(=O)c1cc(Cl)ccc1Cl)B(O)O` [Compound 1, [(1R)-1-({[(2,5-dichlorobenzoyl)amino]acetyl}amino)-3-methylbutyl]boronic acid], the values for the storage stability entry in data set [3] (ambient conditions) and in data set [3] (stored in the freezer) were “not storage stable” and “stable”, respectively.
For the compound `CC(C)C[C@H](NC(=O)CNC(=O)c1cc(Cl)ccc1Cl)B1OC(=O)CC(CC(=O)O)(C(=O)O)O1` (mixture of isomers) [citric acid ester of Compound 1, 4-(R,S)-(carboxymethyl)-2-((R)-1-(2-(2,5-dichlorobenzamido)acetamido)-3-methylbutyl)-6-oxo-1,3,2-dioxaborinane-4-carboxylic acid, reference compound], the storage stability entry in data set [3] (stored in the freezer) is “stable”.
In the case of `CC(C)C[C@H](NC(=O)CNC(=O)c1cc(Cl)ccc1Cl)B1OC(=O)CN(C)CC(=O)O1` [2,5-Dichloro-N—{[(R)-3-methyl-1-(6-methyl-4,8-dioxo-[1,3,6,2]dioxazaborocan-2-yl)-butylcarbamoyl]-methyl}benzamide], the “HPLC purity after storing” value in data set [1] turned out to be 84.4 A %.
